# Reference: patent US7456197B2, “Pyridinium cationic lipids as gene transfer agents” (The Texas A&M University System, priority 2003, dated 2008)
# Columns and labels:
# [1] = Critical (phase transition) temperature Tc by differential scanning calorimetry; type: physicochemical; details: lipids 21 and 25, DSC, heating rate 5° C./minute
# Protocol: General. Melting points for the diols and the phase transition temperature Tc for the cationic lipids were determined by differential scanning calorimetry (DSC), using a TA-Instruments Q100 DSC, and a heating rate of 5° C./minute. The IR spectra were recorded on a Nicolet Avatar 360 FTIR spectrophotometer in the range 650-4000 cm^−1 using a ZnSe—attenuated total reflectance (ATR) accessory. The compounds were solved in a small amount of solvent (MeOH for the diols, CHCl3 for the lipids), and the resulted solutions were left to evaporate to dryness on the surface of the ZnSe crystals of the ATR accessory. The NMR spectra were recorded at ≈303 K with a Varian Inova spectrometer equipped with a 5 mm indirect detection probe, operating at 500 MHz for ^1H-NMR and at 125 MHz for ^13C-NMR. Chemical shifts are reported as δ values, using TMS as internal standard for proton spectra and the solvent resonance for carbon spectra. Assignments were made based on signal intensity, selective decoupling, COSY (^1H-^1H) and HETCOR (^1H-^13C) sequences. Elemental analyses were performed by combustion, using a Perkin Elmer 2400 Series II CHNS analyser.
# Dioleoylphosphatidylethanolamine (DOPE), cholesterol (CHOL), N-(2,3-dioleoyloxypropyl)-N,N,N-trimethylammonium chloride (DOTAP) were commercial products. The purity of the lipids was checked by thin layer chromatography and also by differential scanning calorimetry (DSC), which was also used for determining the critical temperature Tc. For the preparation of the liposomes a protocol optimized for this type of compounds was adopted as follows. The cationic lipid (with or without helper lipid) was dissolved in chloroform/methanol (2/1, v/v) to reach a final concentration of 1 mM for the charged species. From this stock solution 50 μL were aliquoted in a 1 mL tube and the solvent was evaporated in a SpeedVac evaporator, under vacuum, for 1 h. The dried lipid film was prepared by removing the traces of organic solvent in a dessicator, over Drierite®, under vacuum, overnight. The film was hydrated with 500 μL sterile phosphate buffer saline (PBS) the tube was purged with sterile N2, and vortexed for 1 minute. The liposomes were generated by sonicating the tube in a water bath sonicator for 5-30 minutes at 62° C. and at 37° C. for DOTAP. After sonication the preparations were allowed to reach room temperature.
# Materials and Methods. Melting points for the diols, acetates and ketals were determined on a Boetius heating plate microscope and are uncorrected. For the cationic lipids 21 and 25 the phase transition temperature Tc was determined by differential scanning calorimetry (DSC), using a TA-Instruments Q100 DSC, and a heating rate of 5° C./minute. The IR spectra were recorded on a Nicolet Avatar 360 FTIR spectrophotometer, in the range 650-4000 cm^−1, using a ZnSe—attenuated total reflectance (ATR) accessory. The compounds were solved in a small amount of solvent (MeOH for the diols, CHCl3 for the esters), the resulted solutions being left to evaporate to dryness on the surface of the ZnSe crystals of the ATR accessory. This technique was imposed by the poor results obtained in transmission mode for some of the compounds, due to the lack of crystallization, hygroscopicity and other problems related with working with KBr pellets. The NMR spectra were recorded at ≈303 K with a Varian Gemini 300BB spectrometer operating at 300 MHz for ^1H and at 75 MHz for ^13C. Chemical shifts are reported as δ values, using TMS as internal standard for proton spectra and the solvent resonance for carbon spectra: 77.00 ppm in CDCl3, 39.50 ppm in DMSO-d6, the line from 123.50 ppm in pyridine-d5, 62.80 ppm in nitromethane-d3, 30.10 ppm in dimethylformamide-d7. Assignments were made based on signal intensity, selective decoupling and COSY (^1H-^1H) and HETCOR (^1H-^13C) sequences. Nitrogen elemental analysis was performed by combustion, mixing the samples with small amounts of quartz sand.
# [2] = tested on: HeLa cells (human carcinoma cell line ATCC No. CCL-2); assay: Luciferase (pGL3-Control) transfection efficiency, HeLa cells; type: cell-based; details: no helper lipid, DOTAP as reference
# Protocol: Transfection experiments were carried out in vitro on HeLa cells (human carcinoma cell line ATCC No. CCL-2), using a pGL3-Control plasmid (Promega, Madison, Wisc.), which encodes the firefly luciferase reporter. The structurally related and commercially available DOTAP (2) mentioned earlier was chosen as reference.
# HeLa cell line was obtained from ATCC, MD. The plasmid pGL3-control, encoding a firefly luciferase reporter was from Promega (Madison, Wisc.). As transfection reference we used N-[1-(2,3-dioleoyloxy)propyl]-N,N,N-trimethylammonium methylsulfate (DOTAP), obtained from Roche Molecular Biochemicals (Indianapolis, Ind.). The BCA protein assay kit was from Pierce (Rockford, Ill.).
# All of the pyridinium cationic lipids, along with the DOTAP reference, were tested in triplicate in two independent assays. The pyridinium cationic lipids containing tetrafluoroborate (BF4^−) or perchlorate (ClO4^−) anion were dissolved in ethanol/chloroform. The lipid solution was evaporated to dryness using a Speedvac rotary evaporating device, under vacuum. Traces of solvents were removed from the lipid film by keeping the vials under vacuum for another 3 hours. Ultrapure water was added to the dry lipid film, so that a final 1 μg/μL concentration could be reached, and the lipid film was allowed to hydrate overnight. […]
compound,measurement,setting,value
"CCCCCCCCCCCCCCCC(=O)OCC(COC(=O)CCCCCCCCCCCCCCC)[n+]1c(C)cc(C)cc1C.F[B-](F)(F)F [Lipid 25AbP, 1-(1,3-Dipamitoyloxypropane-2-yl)-2,4,6-trimethylpyridinium tetrafluoroborate]",Tc (phase transition temperature),[1],70 °C
same,transfection efficiency (in words),[2],comparable with that of DOTAP
